We go through one compound from US9738612B2, “Methylacryloyl benzimidazolone derivative and anti-tumour use thereof” (SHANGHAI NATURE STANDARD R&D AND BIOTECH CO., LTD, priority 2014, dated 2017).

Assay [1] concerns Akt phosphorylation at S473 site. In words: ELISA (double antibody sandwich), Akt phosphorylation in IGF-1 stimulated A549 cells. The format is cell-based. The following applies: drug 1 h, then IGF-1 10 min, p-Akt (S473) ELISA. How it is done: Establishment of ELISA screening method using a double antibody sandwich method: A549 cells (a lung cancer cell line, purchased from Chinese Academy of Sciences, Shanghai Institutes for Biological Sciences Cell Resource Center) were inoculated at certain densities in 12-well plates, and incubated at 37° C. in a carbon dioxide incubator overnight to let cells attach the plate wells. Meanwhile the Akt antibody was inoculated at a specific concentration in a highly-adsorbed microplate, and placed in a refrigerator at 4° C. The 12-well plates were washed with sterile PBS three times, then into which serum-free F12 was added, and incubated for 24 hours in a incubator. Then MK2206, Triciribine and FD series drugs were added into 12-well plates and worked for one hour, followed by adding 100 ng of IGF-1 and being stimulated for 10 minutes. The 12-well plates were washed with pre-cooled PBS three times, and 100 μl of RIPA lysis buffer was added into each well to lyse cells on ice for 20 minutes. The lysates were collected and added to the appropriate microplate (purchased from Santa Cruz biotechnology), which were shaken on ice. A p-Akt (S473) antibody (purchased Cell Signaling Technology, Inc.) was added into microplates. After shaking for a period of time, an anti-rabbit antibody (purchased from Cell Signaling Technology, Inc.) was added. The reaction was terminated with 2M sulfuric acid after TMB developed. Absorbance at 450 nm was measured on a microplate reader, and the inhibitory rate=[…], among which ODsample refers to the absorbance of the sample well, ODIGF refers the absorbance of the well with IGF only, OD—IGF refers the absorbance of the well withoutIGF.
For orientation: ELISA stands for enzyme-linked immunosorbent assay.

Assay [2] concerns Hela cell. In words: Sulforhodamine B proliferation. It counts as cell-based. The following applies: Homo sapiens, SRB method of Example 2, FIG. 3, read-out: Half inhibitory concentration to Hela cell proliferation. As to the method: (§1) At a certain density cells were seeded in 96-well plates, and adhered overnight. The medium was discarded after incubating cells with compounds to be tested for 72 h, then 100μL/well trichloroacetic acid (TCA) was added to fix cells at 4° C. for 2h. After that the fixing solution was discarded. Cells were gently washed 5 times with distilled water, dried at room temperature. Cells were stained with 4 mg/mL SRB staining solution (100 μL/well) at room temperature for 15min. The staining solution was discarded, and cells were washed five times with 1% acetic acid (HAC) and dried at room temperature. To the plate tris base buffer (10 mM) was added at 150 μL/well and placed at room temperature for 15min. The OD values were measured at 540 nm wavelength in a microplate reader. Inhibitory rate (%)=(OD valuecontrol wells−OD valuedrugs treated wells)/OD valuecontrol wells×100%.
(§2) In the present invention the inhibition of a representative compound FD162 to the proliferation of more than 20 tumor cell lines were tested, and the experimental methods were the same as that described in Example 2.
In general terms: Sulforhodamine B stains cellular protein and so reports cell mass.

Assay [3] has as its system more than 20 tumor cell lines. In words: Proliferation of more than 20 tumor cell lines (FIG. 2). The format is cell-based. The following applies: FIG. 2, in words. How it is done: as §1, §2
Assay [4] concerns Hela cells. Briefly: Subcutaneous transplantation of Hela cells into nude mice. The format is in vivo. How it is done:
The method used herein for animal experiment was that using the subcutaneous transplantation of Hela cells into nude mice.
Tumor tissues at vigorous growth phase were cut into the size of about 1.5mm^3, and inoculated subcutaneously to the right armpit of nude mice under sterile condition. The diameters of subcutaneous xenograft tumors in nude mice were measured with a vernier caliper. The animals were randomly divided when the tumors grew to the sizes of 100-200 mm^3. FD162 was divided into three groups: 20mg/kg, 10mg/kg and 5mg/kg, with 9 mice per group; rapamycin was 10mg/kg; the model group was given saline. All treatments were intraperitoneally administered once a day for 12 days. Throughout the experiment, tumor diameters and body weights were measured simultaneously twice a week. Tumor volume (TV) was calculated as follows: TV=½×a×b2, where a, b respectively represents the length and width of tumors. […]

pIC50: −log10 of the molar value.

Turning to `C=C(C)n1c(=O)n(C(C)=O)c2ncc(Br)cc21` [FD162], the “Inhibitory rate % (Akt phosphorylation)” value in assay [1] came out at 91%. Also, the pIC50 in assay [2] is 5.44. Further, the “Inhibition of proliferation of tumor cell lines” value in assay [3] is recorded as “widespread inhibitory effects”. Further, the Tumor inhibitory rate entry in assay [4] (10 mg/kg intraperitoneally once a day for 12 days, Hela xenograft in nude mice) is listed as “greater than 50%”. Further, the “Tumor inhibiting effect compared with positive control group (rapamycin 10mg/kg)” value in assay [4] (middle dose (10 mg/kg), i.p., 12 days, FIG. 5, in words) was “better than the positive control group”.
